# In patent publication US6642205B2, “Methods and compositions for reducing side effects in chemotherapeutic treatments” (Pro-Pharmaceuticals, Inc., priority 2000, dated 2003):
# What was measured:
# [1] = system: lymphocyte leukemia P-388; assay: Antitumor effect on subcutaneously implanted lymphocyte leukemia P-388 in mice, single i.v. injection; assay type: in vivo, male BDF1 mice; conditions: for Average weight gain/loss from day 1 to day 7 / Nonspecific deaths per group / Average survival time, excluding nonspecific deaths / Average survival time, including nonspecific deaths / average weight loss of an animal: single i.v.; for Nonspecific deaths per group / animals that lived longer than the duration of the study (20 days): six animals per group; for Average survival time, excluding nonspecific deaths / Average survival time, including nonspecific deaths: study duration 20 days; for toxicity compared to Adriamycin: tumor-bearing mice, nonspecific deaths
# Protocol: “Nonspecific death” is death of a treated tumor-bearing animal if its day of death was statistically less (P≦0.05) than the corresponding day of death of a tumor-bearing animal in the untreated control group.
# The response of subcutaneously implanted lymphocyte leukemia P-388 (Arthur D. Little Inc., Cambridge, Mass.) to treatment with a Galactomycin I, Galactomycin II, and Doxorubicin was evaluated in male BDF1 mice.
# Mice were acclimated in the laboratory one week prior to experimentation. The animals were housed five per cage in a 12-hour light/dark cycle. The animals received filtered water and sterile rodent food ad libitum. The animals were observed daily and clinical signs were noted. Weight of the animals was in the range of 19-21 g at the day of treatment initiation. The mice were healthy, not previously used in other experimental procedures.
# There were a total of twelve groups, 10 animals in two control groups (saline only), and six animals in each in 10 agent treatment groups. The groups were treated 24 hours after tumor implantation, as follows:
# Tumor cells were implanted in a sub-cutaneous injection of one million cells per mouse and allowed to grow for 24 hours. After that, Adriamycin, Galactomycin I and Galactomycin II were administered as 0.7-10 mg/mL solutions by a single i.v. injection.
# Study duration was twenty days after tumor implantation, or nineteen days after treatment initiation.
# [2] = Side effects (deaths) after single dose intravenous injection in healthy mice, 20 days observation; assay type: in vivo, male BDF1 mice; conditions: for Deaths per group / Life span after treatment (except survived animals): single i.v.; for Deaths per group: six animals each; for Life span after treatment (except survived animals): one value per dead animal; for toxicity compared to Adriamycin: healthy mice, single i.v. dose
# Text: Male BDF1 mice were used as the experimental animals for measuring side effects of therapeutic preparations. Mice were acclimated in the laboratory one week prior to experimentation. The animals were housed five per cage in a 12-hour light/dark cycle. The animals received filtered water and sterile rodent food ad libitum. The animals were observed daily and clinical signs were noted. Weight of the animals was in the range of 19-21 g at the day of treatment initiation. The mice were healthy, not previously used in other experimental procedures.
SMILES,Average weight gain/loss from day 1 to day 7 ([1]; dose 7 mg/kg),Nonspecific deaths per group ([1]; dose 7 mg/kg),"Average survival time, excluding nonspecific deaths ([1]; dose 7 mg/kg) [days]","Average survival time, including nonspecific deaths ([1]; dose 7 mg/kg) [days]",Average weight gain/loss from day 1 to day 7 ([1]; dose 14 mg/kg),"Average survival time, excluding nonspecific deaths ([1]; dose 14 mg/kg) [days]","Average survival time, including nonspecific deaths ([1]; dose 14 mg/kg) [days]",Nonspecific deaths per group ([1]; dose 14 mg/kg),Average weight gain/loss from day 1 to day 7 ([1]; dose 40 mg/kg) [g],"Average survival time, excluding nonspecific deaths ([1]; dose 40 mg/kg) [days]","Average survival time, including nonspecific deaths ([1]; dose 40 mg/kg) [days]",toxicity compared to Adriamycin [1],Deaths per group ([2]; dose 15 mg/kg),Deaths per group ([2]; dose 20 mg/kg),Deaths per group ([2]; dose 25 mg/kg),Deaths per group ([2]; dose 30 mg/kg),Deaths per group ([2]; dose 40 mg/kg),Deaths per group ([2]; dose 80 mg/kg),Deaths per group ([2]; dose 100 mg/kg),toxicity compared to Adriamycin [2],also measured
"COc1cccc2c1C(=O)c1c(O)c3c(c(O)c1C2=O)C[C@@](O)(C(=O)CO)C[C@@H]3O[C@H]1C[C@H](N)[C@H](O)[C@H](C)O1 [Adriamycin, 14-hydroxydaunomycin, reference compound]",-0.5 g,0,15.5,15.5,-1.8 g,>19,> 15,,,,,,,,,,,,,,"average weight loss of an animal ([1]; dose 14 mg/kg): 1.8 g; animals that lived longer than the duration of the study (20 days) ([1]; dose 14 mg/kg): two; Deaths per group ([2]; dose 21 mg/kg): Three; Deaths per group ([2]; dose 21 mg/kg, listed as Doxorubicin): 3; LD50 at 20 days ([2]; male, BDF1, mouse, in vivo, intravenous, 21 mg/kg, single injection in mice, read-out: LD50 (estimated from Table 2 data)): ~21 mg/kg"
"COc1cccc2c1C(=O)c1c(O)c3c(c(O)c1C2=O)CC(O)(C(=O)CO)CC3OC1CC(NCC(O)C(O)C(O)C(O)COC2OC(CO)C(O)C(O)C2O)C(O)C(C)O1 [Galactomycin I, N-[α-D-galactopyranosyl-(1→6)-β-O-D-sorbityl]doxorubicin]",+1.7 g,0,11.7,11.7,+2.3 g,12.2,12.2,0,-0.9,>18,> 16,significantly less toxic,0,0,0,0,1,6,6,significantly less toxic,"Average weight gain/loss from day 1 to day 7 ([1]; dose 20 mg/kg): -0.8 g; Nonspecific deaths per group ([1]; dose 20 mg/kg): 0; Average survival time, excluding nonspecific deaths ([1]; dose 20 mg/kg): 16.3 days; Average survival time, including nonspecific deaths ([1]; dose 20 mg/kg): 16.3 days; average weight loss of an animal ([1]; dose 40 mg/kg): 0.9 g; animals that lived longer than the duration of the study (20 days) ([1]; dose 40 mg/kg): two; Deaths per group ([2]; dose 10 mg/kg): 0; Life span after treatment (except survived animals) ([2]; dose 40 mg/kg): 2 days; LD50 (estimated from Table 2 data) ([2]; single injection in mice): 50 to 60 mg/kg"
"Br.COc1cccc2c1C(=O)c1c(O)c3c(c(O)c1C2=O)CC(O)(C(=O)CO)CC3OC1CC(NCC(O)C(O)C(OC2OC(CO)C(O)C(O)C2O)C(O)CO)C(O)C(C)O1 [Galactomycin II, N-[β-D-galactopyranosyl-(1→4)-β-O-D-sorbityl]doxorubicin]",+4.3 g,0,11.7,11.7,+0.8 g,12.0,12.0,0,-1.1,15.0,15.0,significantly less toxic,0,0,0,0,0,1,3,significantly less toxic,"Nonspecific deaths per group ([1]; dose 40 mg/kg): 0; Average weight gain/loss from day 1 to day 7 ([1]; dose 80 mg/kg): -1.0 g; average weight loss of an animal ([1]; dose 80 mg/kg): 1.0 g; Average survival time, excluding nonspecific deaths ([1]; dose 80 mg/kg): >18 days; Average survival time, including nonspecific deaths ([1]; dose 80 mg/kg): > 16 days; animals that lived longer than the duration of the study (20 days) ([1]; dose 80 mg/kg): two; Deaths per group ([2]; dose 50 mg/kg): 0; Life span after treatment (except survived animals) ([2]; dose 80 mg/kg): 2 days; LD50 (estimated from Table 2 data) ([2]; single injection in mice): ~100 mg/kg"
